biological target: T1, human NPY Y5 receptor (Homo sapiens (Human), UniProt Q15761); assay: Inhibitory effect on cAMP production in CHO cells; type: cell-based; details: CHO cells expressing human NPY Y5 receptor, 50 nM NPY, 10 μM forskolin; read-out: 50% inhibitory concentration (IC50 value) against the NPY activity on forskolin stimulated cAMP production
Method: CHO cells expressing human NPY Y5 receptor were incubated in the presence of 2.5 mM isobutylmethylxanthine (SIGMA) at 37° C. for 20 min. After the incubation the compound of the present invention was added, and then the mixture was incubated for 5 min. Next, 50 nM NPY and 10 μM forskolin (SIGMA) were added, and the mixture was incubated for 30 min. After termination of the reaction by adding 1N HCl, the amount of cAMP in the supernatant was determined with an EIA kit (Amersham LIFE SCIENCE). The inhibitory activity of NPY against forskolin stimulated cAMP production was expressed as 100% and the 50% inhibitory concentration (IC50 value) of the compound of the present invention against the NPY activity was calculated.

T1 sequence (Q15761 whole entry): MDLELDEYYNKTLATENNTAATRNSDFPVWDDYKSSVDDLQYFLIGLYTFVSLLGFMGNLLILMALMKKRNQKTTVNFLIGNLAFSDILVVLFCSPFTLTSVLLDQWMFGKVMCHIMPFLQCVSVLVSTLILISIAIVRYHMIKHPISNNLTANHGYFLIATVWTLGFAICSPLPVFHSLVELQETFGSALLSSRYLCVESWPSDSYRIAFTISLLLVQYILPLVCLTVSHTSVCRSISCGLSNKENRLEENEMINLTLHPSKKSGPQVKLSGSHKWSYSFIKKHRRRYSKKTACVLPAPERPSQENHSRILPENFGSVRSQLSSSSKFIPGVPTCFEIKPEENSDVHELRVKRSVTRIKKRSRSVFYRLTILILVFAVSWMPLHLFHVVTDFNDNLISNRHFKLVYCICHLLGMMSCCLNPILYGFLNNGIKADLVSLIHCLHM

Row | IC50 [nM] | Compound
1 | 3.3 | CCS(=O)(=O)NC[C@H]1CC[C@H](Nc2nc(-c3cccc(F)c3)no2)CC1 [Compound I-017]
2 | 2.1 | CC(C)S(=O)(=O)NC[C@H]1CC[C@H](Nc2nc(-c3cccc(F)c3)no2)CC1 [Compound I-018]
3 | 1.3 | CCS(=O)(=O)NC[C@H]1CC[C@H](Nc2nc(-c3ccc(F)c(F)c3)no2)CC1 [Compound I-029]

biological target: T1, human NPY Y5 receptor; assay: Affinity for human NPY Y5 receptor ([125I] peptide YY binding, CHO cell membranes); details: membranes from CHO cells expressing human NPY Y5 receptor, [125I] peptide YY 60 pM, 25° C., 2 hours; read-out: 50% inhibitory concentration against the specific peptide YY binding (IC50 value)
Source text: (§1) cDNA sequence encoding a human NPY Y5 receptor (WO96/16542) was cloned in a vector (pME18S, Takebe et al. Mol. Cell. Biol. 8, 466-472). The obtained expression vector was transfected into CHO cells as a host by using Lipofect AMINE reagent (Trademark, Inbitrogen) according to the instruction manual. The cells that stably express human NPY Y5 receptor were obtained.
(§2) The membranes prepared from the CHO cells expressing human NPY Y5 receptor, the compound of this invention and 30,000 cpm [^1251] peptide YY (60 pM of final concentration: Healthcare) were incubated in the assay buffer (20 mM HEPES-Hanks buffer containing 0.1% bovine serum albumin, pH 7.4) at 25° C. for 2 hours, and then the membrane was filtered from the mixture through a glassfilter (GF/C) presoaked with 1% polyethyleneimine. After washing with 50 mM Tris-HCl buffer (pH 7.4), radioactivity retained on the filters was quantified with a gamma counter. Nonspecific binding was defined as the amount of radioactivity bound to the membranes after incubation in the presence of 200 nM of peptide YY. The 50% inhibitory concentration of the test compound against the specific peptide YY binding (IC50 value) was calculated (Inui, A. et al. Endocrinology 131, 2090-2096 (1992)).

Row | IC50 [nM] | Compound
4 | 0.81 | CCS(=O)(=O)NC[C@H]1CC[C@H](Nc2nc(-c3cccc(F)c3)no2)CC1 [Compound I-017]
5 | 0.86 | CCS(=O)(=O)NC[C@H]1CC[C@H](Nc2nc(-c3ccc(F)c(F)c3)no2)CC1 [Compound I-029]

biological target: mouse NPY Y5 receptor (Mus musculus (Mouse), UniProt O70342); assay: Affinity for mouse NPY Y5 receptor ([125I] peptide YY binding, CHO cell membranes); details: membranes from CHO cells expressing mouse NPY Y5 receptor, [125I] peptide YY 60 pM, 25° C., 2 hours; read-out: 50% inhibitory concentration against the specific peptide YY binding (IC50 value)
Source text: as §1, with “mouse” for “human”, “(Biochim. Biophys. Acta 1328:83-89, 1997)” for “(WO96/16542)”, “8957).” for “466-472).”, “Gico BRL Co., Ltd.)” for “Inbitrogen)”, “express” for “express human”
as §2, with “expressing” for “expressing human”, “[^125I]” for “[^1251]”, “glass filter” for “glassfilter”

mouse NPY Y5 receptor, sequence (O70342 whole entry): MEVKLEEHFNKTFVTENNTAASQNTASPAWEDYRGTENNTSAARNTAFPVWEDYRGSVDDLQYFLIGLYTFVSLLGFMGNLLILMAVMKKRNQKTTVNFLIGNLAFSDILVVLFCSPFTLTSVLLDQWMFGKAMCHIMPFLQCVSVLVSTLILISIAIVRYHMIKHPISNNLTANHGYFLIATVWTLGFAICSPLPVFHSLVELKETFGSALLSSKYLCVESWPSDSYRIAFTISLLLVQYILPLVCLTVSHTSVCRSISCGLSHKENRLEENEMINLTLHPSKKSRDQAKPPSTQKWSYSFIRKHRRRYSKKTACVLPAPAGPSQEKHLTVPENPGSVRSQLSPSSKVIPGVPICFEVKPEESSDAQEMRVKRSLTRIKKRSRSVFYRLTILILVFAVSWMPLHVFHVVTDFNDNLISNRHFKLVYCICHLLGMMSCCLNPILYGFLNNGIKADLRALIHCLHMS

Row | IC50 [nM] | Compound
6 | 0.32 | CCS(=O)(=O)NC[C@H]1CC[C@H](Nc2nc(-c3ccc(F)cc3)no2)CC1 [Compound I-006]
7 | 0.34 | CCS(=O)(=O)NC[C@H]1CC[C@H](Nc2nc(-c3ccccc3)no2)CC1 [Compound I-011]
8 | 0.22 | CCS(=O)(=O)NC[C@H]1CC[C@H](Nc2nc(-c3cccc(F)c3)no2)CC1 [Compound I-017]
9 | 0.2 | CC(C)S(=O)(=O)NC[C@H]1CC[C@H](Nc2nc(-c3cccc(F)c3)no2)CC1 [Compound I-018]
10 | 1.4 | CS(=O)(=O)NC[C@H]1CC[C@H](Nc2nc(-c3ccc(F)cc3)no2)CC1 [Compound I-023]
11 | 0.13 | CC(C)S(=O)(=O)NC[C@H]1CC[C@H](Nc2nc(-c3ccccc3)no2)CC1 [Compound I-024]
12 | 0.86 | CS(=O)(=O)NC[C@H]1CC[C@H](Nc2nc(-c3cccc(F)c3)no2)CC1 [Compound I-027]
13 | 0.22 | CCS(=O)(=O)NC[C@H]1CC[C@H](Nc2nc(-c3ccc(F)c(F)c3)no2)CC1 [Compound I-029]
14 | 0.18 | CCS(=O)(=O)NC[C@H]1CC[C@H](Nc2nc(-c3ccc(F)cc3F)no2)CC1 [Compound I-034]
15 | 0.23 | CCS(=O)(=O)NC[C@H]1CC[C@H](Nc2nc(-c3cc(F)cc(F)c3)no2)CC1 [Compound I-053]
16 | 0.9 | CS(=O)(=O)NC[C@H]1CC[C@H](Nc2nc(-c3cccc(Cl)c3)no2)CC1 [Compound I-081]
17 | 0.8 | CC(C)S(=O)(=O)NC[C@H]1CC[C@H](Nc2nc(-c3ccc(F)cn3)no2)CC1 [Compound I-099]
18 | 0.9 | CC(C)(C)S(=O)(=O)NC[C@H]1CC[C@H](Nc2nc(-c3ccc(F)cn3)no2)CC1 [Compound I-100]
19 | 0.7 | CC(C)(c1ccccc1)c1noc(N[C@H]2CC[C@H](CNS(=O)(=O)C(C)(C)C)CC2)n1 [Compound I-130]
20 | 1.5 | CC(C)(C)S(=O)(=O)NC[C@H]1CC[C@H](Nc2nc(C(F)(F)F)no2)CC1 [Compound I-136]
21 | 0.5 | CCS(=O)(=O)NC[C@H]1CC[C@H](Nc2nc(C3(F)CCCC3)no2)CC1 [Compound I-138]
22 | 0.8 | CC1(c2noc(N[C@H]3CC[C@H](CNS(=O)(=O)C(C)(C)C)CC3)n2)CC(F)(F)C1 [Compound I-143]
23 | 3.1 | CC(C)S(=O)(=O)NC[C@H]1CC[C@H](Nc2nc(C(F)(F)F)no2)CC1 [Compound I-145]
24 | 4.21 | CC(C)(C)S(=O)(=O)NC[C@H]1CC[C@H](Nc2nc(C(F)(F)F)co2)CC1 [Compound I-146]
25 | 0.61 | CC(C)S(=O)(=O)NC[C@H]1CC[C@H](Nc2nc(C3(C)CC(F)(F)C3)no2)CC1 [Compound I-147]
26 | 1.04 | CC(C)(C)S(=O)(=O)NC[C@H]1CC[C@H](Nc2nc(C(F)(F)C(F)(F)F)no2)CC1 [Compound I-149]
27 | 3.6 | CC(C)S(=O)(=O)NC[C@H]1CC[C@H](Nc2nc(C(F)(F)F)co2)CC1 [Compound I-150]
28 | 0.65 | CC(C)S(=O)(=O)NC[C@H]1CC[C@H](Nc2nc(C(F)(F)C(F)(F)F)no2)CC1 [Compound I-152]
29 | 1.67 | CCS(=O)(=O)NC[C@H]1CC[C@H](Nc2nc(C(F)(F)C(F)(F)F)no2)CC1 [Compound I-153]
30 | 1.9 | CC(C)(C)S(=O)(=O)NC[C@H]1CC[C@H](Nc2nc(C3(F)CC(F)(F)C3)no2)CC1 [Compound I-161]

— patent US8916594B2, “5-membered ring heteroaromatic derivatives having NPY Y5 receptor antagonistic activity” (Shionogi & Co., Ltd., priority 2011, dated 2014)
